Test results: patent US20250186456A1, “PYRIMIDINE-FUSED CYCLIC COMPOUND AND PREPARATION METHOD AND USE THEREOF” (Genfleet Therapeutics (Shanghai) Inc., priority 2021, published 2025)
Read-outs that look alike come from different tables or passages of the source.

Columns and labels:
Format in all cases: cell-based, human
[1] = tested on: AsPC-1 cells (KRAS G12D mutation); assay: Cell proliferation inhibition assay, 3D, CellTiter-Glo 3D, AsPC-1; settings: AsPC-1 3D sphere model, 5 days incubation
Excerpt: (§1) AsPC-1 was purchased from ATCC; catalog No: CRL-1682; AGS was purchased from ATCC; catalog No: CRL-1739; RPMI1640 was purchased from Gibco; catalog No: 11875-093 2235123; F12K was purchased from Gibco; catalog No: 21127-022; FBS was purchased from Gibco; catalog No: 10099-141C; trypsin (containing EDTA) was purchased from Gibco; catalog No: 25200-072; CellTiter Glo-3D was purchased from Progema; catalog No: G9683; 384-well sphere plates were purchased from Corning; catalog No: 3830; white opaque 384-well plates were purchased from Corning; catalog No: 3570; cell counters were purchased from CHEMOMETEC; model: NC-200; microplate reader was purchased from PerkinElmer; model: Envison;
(§2) AsPC-1 is an endogenous human pancreatic cancer cell containing KRAS^G12D mutation, cultured in RPMI-1640 medium containing 10% FBS; AGS is a human gastric cancer cell line containing KRAS^G12D, cultured in F-12K medium containing 10% FBS. Cells in the logarithmic growth phase were taken, digested with trypsin (containing EDTA), collected, and counted. 800 AsPC-1 cells/well or 400 AGS cells/well, respectively, were seeded in a 384-well sphere plate and cultured overnight at 5% CO2 to establish a 3D cell model. 1000X stock solutions of compounds at a 3.16-fold concentration gradient of were prepared using DMSO, diluted 100-fold into a 10X compound stock solution using the medium described above. The 10X compound stock solution was added to each cell on 2nd day after cell seeding at a final concentration of 1X and a DMSO content of 0.1%. DMSO was used as a control in the experiment, and the medium was used as blank. After the addition of the compounds, the cells were incubated for 5 days. 30 μl of CellTiter-Glo work solution was added to each well, mixed well, and incubated for 30 minutes. After standing at room temperature for 30 minutes, 40 μl of the mixed solution was transferred to an opaque 384-well plate with a white clear bottom. Luminescence chemiluminescence value was read by a microplate reader, and the cell proliferation inhibition rate (IR (%)=(RLU control-RLU compound)/(RLU control-RLU blank)×100%) was calculated. The gradiently diluted concentration of the compounds and corresponding cell proliferation inhibition rate were fitted using XLFit four-parameters method, and the IC50 value was calculated. […] The results of some exemplary compounds are shown in Table 2 (“−” represents untested).

AGS cells (KRAS G12D) = assay: Cell proliferation inhibition assay, 3D, CellTiter-Glo 3D, AGS; settings: AGS 3D sphere model, 5 days incubation
Excerpt: as §1, §2

[2] = tested on: p-ERK in AGS cells (KRAS G12D mutation); assay: Cell p-ERK assay (HTRF, Advance ERK phospho-T202/Y204 kit); settings: AGS cells, 3 hours incubation with compound, HTRF, read-out: AGS p-ERK IC50
Experimental: AGS was purchased from ATCC; catalog No: CRL-1739; F12K was purchased from Gibco; catalog No: 21127-022; FBS was purchased from Gibco; catalog No: 10099-141C; trypsin (containing EDTA) was purchased from Gibco, catalog No: 25200-072; DMSO was purchased from VWRAMRESCO; catalog No: 0231-500 ML; 96-well cell culture plates were purchased from Corning; catalog No: 3599; white opaque 96-well plates were purchased from Cisbio; catalog No: 66PL96025; Advance ERK phospho-T202/Y204 kit was purchased from Cisbio; catalog No: 64AERPEH; cell counters were purchased from CHEMOMETEC; model No: NC-200; microplate reader was purchased from PerkinElmer; model No: Envison.
AGS is an endogenous human gastric adenocarcinoma cell line containing the KRAS^G12D mutation, cultured in F12K+10% FBS medium. On the first day of the experiment, cells in the logarithmic growth phase were taken, digested with trypsin (containing EDTA), collected, and counted. Approximately 20000 cells/well were seeded in a 96-well cell culture plate and cultured overnight in an incubator with 5% CO2. 1000X stock solutions of compounds at a 3.16-fold concentration gradient were prepared using DMSO, and diluted 200-fold into a 5X compound stock solution using the medium described above. The 5X compound stock solution was added to each cell culturing well the day after cell seeding at a final concentration of 1X and a DMSO content of 0.1%. DMSO was used as a control in the experiment. After the compound was added and the incubation was kept for 3 hours, the medium in the culture wells was removed. 50 μl of Cell lysis solution (from Advance ERK phospho-T202/Y204 kit, the same below) was added to each well, mixed well, and incubated for 30 minutes and then 16 μl of the mixed solution was transferred to a white opaque 96-well plate, another 16 μl of cell lysis solution was added to a well as a blank well. After transferring, 4 μl of p-ERK HTRF antibody mixture (from Advance ERK phospho-T202/Y204 kit) was added to each well. After incubation for 4 hours, HTRF fluorescence value (RLU) was read by a microplate reader, and p-ERK level inhibition rate (IR (%)=(RLU control-RLU compound)/(RLU control-RLU blank)×100%) of the compounds was calculated. The concentration of the compounds and corresponding cell p-ERK level inhibition rate were fitted using Prism 8 four-parameters method, and the IC50 value was calculated.

IC50 [2]	IC50 [1]	IC50 (AGS cells (KRAS G12D))	SMILES	IC50 ([1]; Homo sapiens, ASPC1, 120 h)	IC50 (AGS cells (KRAS G12D); Homo sapiens, 120 h)	IC50 ([2]; Homo sapiens)
			C#Cc1c(F)ccc2cccc(-c3nc4c5c(nc(OCC67C[C@H](OC)CN6CCC7=C)nc5c3F)N3C[C@H]5CC[C@H](N5)[C@H]3[C@H](C)O4)c12 (stereo partly drawn) [Example Z694, (5S,5aS,6S,9R)-2-(8-ethynyl-7-fluoronaphthalen-1-yl)-1-fluoro-12-(((6S)-6-methoxy-1-methylenetetrahydro-1H-pyrrolizin-7a (5H)-yl)methoxy)-5-methyl-5a,6,7,8,9,10-hexahydro-5H-4-oxa-3,10a, 11,13,14-pentaaza-6,9-methanonaphtho[1,8-ab]heptalene]	0.405 µM	0.397 µM	
			C#Cc1cccc2cc(N)cc(-c3nc4c5c(nc(OCC6(CN(C)CC(F)(F)F)CC6)nc5c3F)N3C[C@H]5CC[C@H](N5)[C@H]3[C@H](C)O4)c12 [Example Z714, 5-Ethynyl-4-((5S,5aS,6S,9R)-1-Fluoro-5-Methyl-12-((1-((Methyl(2,2,2-Trifluoroethyl)Amino)Methyl)Cyclopropyl)Methoxy)-5a,6,7,8,9,10-Hexahydro-5H-4-Oxa-3,10a,11,13,14-Pentaaza-6,9-Methanonaphtho[1,8-Ab]Heptalen-2-Yl) Naphthalen-2-Amine]	0.815 µM	0.673 µM	0.622 µM
			C#Cc1c(F)ccc2cccc(-c3nc4c5c(nc(OC[C@]67CCCN6CCC7=C)nc5c3F)N3C[C@H]5CC[C@H](N5)[C@H]3[C@H](C)O4)c12 (single isomer, unassigned) [Example Z638]	0.032 µM	0.0197 µM	0.00779 µM
			C#Cc1c(F)ccc2cc(O)cc(-c3nc4c5c(nc(OCC67CC(=C)CN6CC(=C)C7)nc5c3F)N3C[C@H]5CC[C@H](N5)[C@H]3CO4)c12 [Example Z380, 4-((5aS,6S,9R)-12-((2,6-Dimethylenetetrahydro-1H-Pyrrolizin-7a (5H)-Yl)Methoxy)-1-Fluoro-5a,6,7,8,9,10-Hexahydro-5H-4-Oxa-3,10a,11,13,14-Pentaaza-6,9-Methanonaphtho[1,8-Ab]Heptalen-2-Yl)-5-Ethynyl-6-Fluoronaphthalen-2-Ol]	0.0262 µM	0.00268 µM	0.00078 µM
			C#Cc1c(F)ccc2cccc(-c3nc4c5c(nc(OCC67CCCN6CC(=CF)C7)nc5c3F)N3C[C@H]5CC[C@H](N5)[C@H]3[C@H](C)O4)c12 (stereo partly drawn) [Example Z601, (5S,5aS,6S,9R)-2-(8-ethynyl-7-fluoronaphthalen-1-yl)-1-fluoro-12-((2-(fluoromethylene)tetrahydro-1H-pyrrolizin-7a (5H)-yl)methoxy)-5-methyl-5a,6,7,8,9,10-hexahydro-5H-4-oxa-3,10a, 11, 13, 14-pentaaza-6,9-methanonaphtho[1,8-ab]heptalene]	0.039 µM	0.0135 µM	0.0105 µM
			C#Cc1c(F)ccc2cccc(-c3nc4c5c(nc(OCC67CC(=C)CN6CC(=C)C7)nc5c3F)N3C[C@H]5CC[C@H](N5)[C@H]3CCO4)c12 [Example Z629]	0.167 µM	0.0517 µM	0.05 µM
			C#Cc1c(F)ccc2cccc(-c3nc4c5c(nc(OCC67CCCN6CCC7=CF)nc5c3F)N3C[C@H]5CC[C@H](N5)[C@H]3[C@H](C)O4)c12 (stereo partly drawn) [Example Z611, (5S,5aS,68,9R)-2-(8-ethynyl-7-fluoronaphthalen-1-yl)-1-fluoro-12-((1-(fluoromethylene)tetrahydro-1H-pyrrolizin-7a (5H)-yl)methoxy)-5-methyl-5a,6,7,8,9,10-hexahydro-5H-4-oxa-3,10a,11,13,14-pentaaza-6,9-methanonaphtho[1,8-ab]heptalene]	0.0491 µM	0.0104 µM	0.0196 µM
0.00054 µM	0.00361 µM	0.00166 µM	C#Cc1cccc2cc(N)cc(-c3nc4c5c(nc(OCC67C[C@@H](F)CN6CCC7=C)nc5c3F)N3C[C@H]5CC[C@H](N5)[C@H]3[C@H](C)O4)c12 (stereo partly drawn) [Example Z730, 5-ethynyl-4-((5S,5aS,6S,9R)-1-fluoro-12-(((6R)-6-fluoro-1-methylenetetrahydro-1H-pyrrolizin-7a (5H)-yl)methoxy)-S-methyl-5a,6,7,8,9,10-hexahydro-5H-4-oxa-3,10a, 11, 13, 14-pentaaza-6,9-methanonaphtho[1,8-ab]heptalene-2-yl) naphthalen-2-amine]			
			C#Cc1cccc2cc(N)cc(-c3nc4c5c(nc(OCC6(CN7CCC(F)(F)C7)CC6)nc5c3F)N3C[C@H]5CC[C@H](N5)[C@H]3[C@H](C)O4)c12 [Example Z712, 4-((5S,5aS,6S,9R)-12-((1-((3,3-difluoropyrrolidin-1-yl)methyl)cyclopropyl)methoxy)-1-fluoro-5-methyl-5a,6,7,8,9,10-hexahydro-5H-4-oxa-3,10a, 11, 13, 14-pentaaza-6,9-methanonaphtho[1,8-ab]heptalen-2-yl)-5-ethynylnaphthalen-2-amine]	0.0304 µM	0.0607 µM	0.0282 µM
			C#Cc1c(F)ccc2cccc(-c3nc4c5c(nc(OCC67CC(=C)CN6CC[C@H]7OC)nc5c3F)N3C[C@H]5CC[C@H](N5)[C@H]3[C@H](C)O4)c12 (stereo partly drawn) [Example Z704, (58,5aS,6S,9R)-2-(8-ethynyl-7-fluoronaphthalen-1-yl)-1-fluoro-12-(((1R)-1-methoxy-6-methylenetetrahydro-1H-pyrrolizin-7a (5H)-yl)methoxy)-5-methyl-5a,6,7,8,9,10-hexahydro-5H-4-oxa-3,10a, 11, 13,14-pentaaza-6,9-methanonaphtho[1,8-ab]heptalene]	0.688 µM		0.542 µM
			C#Cc1c(F)ccc2cccc(-c3nc4c5c(nc(OCC67CC(=C)CN6C[C@@H](F)C7)nc5c3F)N3C[C@H]5CC[C@H](N5)[C@H]3[C@H](C)O4)c12 (stereo partly drawn) [Example Z634, (5S,5aS,6S,9R)-2-(8-ethynyl-7-fluoronaphthalen-1-yl)-1-fluoro-12-(((2S)-2-fluoro-6-methylenetetrahydro-1H-pyrrolizin-7a (5H)-yl)methoxy)-5-methyl-5a,6,7,8,9,10-hexahydro-5H-4-oxa-3,10a,11,13,14-pentaaza-6,9-methanonaphtho[1,8-ab]heptalene]	0.883 µM		
			C=C1CN2CCCC2(COc2nc3c4c(nc(-c5cccc6cccc(Cl)c56)c(F)c4n2)O[C@@H](CC)[C@@H]2[C@@H]4CC[C@H](CN32)N4)C1 (stereo partly drawn) [Example Z596, (5S,5aS,6S,9R)-2-(8-chloronaphthalen-1-yl)-5-ethyl-1-fluoro-12-((2-methylenetetrahydro-1H-pyrrolizin-7a (5H)-yl)methoxy)-5a,6,7,8,9,10-hexahydro-5H-4-oxa-3,10a,11,13,14-pentaaza-6,9-methanonaphtho[1,8-ab]heptalene]	0.411 µM	0.268 µM	
